Test results as given in patent US6015805A, “17β-nitro-11β-arylisteroids and their derivatives having agonist or antagonist hormonal properties” (Research Triangle Research North Carolina, priority 1999, dated 2000).

Legend:
progestin receptor (rPR) = molecular target: T1, progestin receptor (rPR) (Oryctolagus cuniculus, UniProt P06186); experiment: Receptor binding (rabbit), progestin receptor; conditions: for Ratio PR/GR: ratio of rPR to rGR relative affinities; for Relative Binding Affinity, rPR, Relative Affinity (Progesterone): relative to progesterone = 100, rabbit progestin receptor
T1 construct: hormone receptors for progestins and glucocorticoids from rabbits; from tissue; host or cells: rabbit
T1 sequence (P06186 1-930): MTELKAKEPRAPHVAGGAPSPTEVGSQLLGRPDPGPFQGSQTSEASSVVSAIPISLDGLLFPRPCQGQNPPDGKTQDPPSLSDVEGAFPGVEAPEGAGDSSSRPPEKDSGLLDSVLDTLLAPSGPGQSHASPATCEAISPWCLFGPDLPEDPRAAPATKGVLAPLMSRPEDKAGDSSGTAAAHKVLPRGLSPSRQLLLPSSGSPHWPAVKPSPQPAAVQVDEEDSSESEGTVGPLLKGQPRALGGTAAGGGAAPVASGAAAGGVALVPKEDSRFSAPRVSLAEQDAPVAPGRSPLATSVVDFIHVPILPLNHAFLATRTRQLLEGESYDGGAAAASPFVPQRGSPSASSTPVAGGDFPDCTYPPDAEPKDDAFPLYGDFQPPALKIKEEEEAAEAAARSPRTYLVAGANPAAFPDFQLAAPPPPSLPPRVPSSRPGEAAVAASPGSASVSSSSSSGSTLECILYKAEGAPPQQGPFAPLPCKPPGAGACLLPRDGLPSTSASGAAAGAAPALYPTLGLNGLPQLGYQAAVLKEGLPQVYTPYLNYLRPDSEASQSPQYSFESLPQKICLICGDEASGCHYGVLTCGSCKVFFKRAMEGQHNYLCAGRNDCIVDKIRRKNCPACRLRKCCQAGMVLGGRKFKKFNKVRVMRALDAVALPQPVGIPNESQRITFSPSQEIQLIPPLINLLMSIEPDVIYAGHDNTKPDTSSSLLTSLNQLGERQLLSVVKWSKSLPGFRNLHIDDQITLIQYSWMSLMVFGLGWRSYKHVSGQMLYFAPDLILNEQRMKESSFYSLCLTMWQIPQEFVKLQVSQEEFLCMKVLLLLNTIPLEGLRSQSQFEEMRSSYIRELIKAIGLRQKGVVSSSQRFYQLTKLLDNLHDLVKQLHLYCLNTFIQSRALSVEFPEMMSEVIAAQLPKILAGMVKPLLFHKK

[1] = molecular target: T2, glucocorticoid receptor (rGR) (Oryctolagus cuniculus, UniProt P59667); experiment: Receptor binding (rabbit), glucocorticoid receptor; conditions: relative to dexamethasone = 100
T2 construct: the source of the glucocorticoid receptor was the thymus of the estrogen-primed immature female rabbit; from tissue; host or cells: thymus of the estrogen-primed immature female rabbit
T2 sequence (P59667 1-772): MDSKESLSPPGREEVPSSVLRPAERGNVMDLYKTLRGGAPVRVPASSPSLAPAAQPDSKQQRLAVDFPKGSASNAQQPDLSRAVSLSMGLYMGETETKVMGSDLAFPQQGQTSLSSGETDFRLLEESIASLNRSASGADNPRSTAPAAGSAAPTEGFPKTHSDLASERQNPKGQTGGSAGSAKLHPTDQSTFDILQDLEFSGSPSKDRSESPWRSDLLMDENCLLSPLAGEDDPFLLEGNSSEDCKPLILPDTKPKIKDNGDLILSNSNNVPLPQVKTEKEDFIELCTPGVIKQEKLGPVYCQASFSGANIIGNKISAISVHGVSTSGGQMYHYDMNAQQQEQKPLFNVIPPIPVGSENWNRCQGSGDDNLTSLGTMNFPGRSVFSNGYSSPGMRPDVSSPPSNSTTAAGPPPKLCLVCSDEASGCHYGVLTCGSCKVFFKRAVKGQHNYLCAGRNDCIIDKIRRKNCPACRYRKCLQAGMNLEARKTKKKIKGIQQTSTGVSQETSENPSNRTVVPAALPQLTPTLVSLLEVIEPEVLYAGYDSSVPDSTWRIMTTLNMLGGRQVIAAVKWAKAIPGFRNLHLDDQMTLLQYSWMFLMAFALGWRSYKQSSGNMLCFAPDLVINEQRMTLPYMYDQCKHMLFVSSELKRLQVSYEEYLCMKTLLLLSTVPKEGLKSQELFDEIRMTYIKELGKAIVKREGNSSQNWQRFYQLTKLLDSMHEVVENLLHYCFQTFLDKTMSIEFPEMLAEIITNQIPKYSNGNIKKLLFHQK
Description: (§1) The affinity of the compounds for hormone receptors for progestins and glucocorticoids from rabbits was determined by standard procedures similar to those that have been described in C. E. Cook, et al., Human Reproduction, Volume 9, supplement 1, pp. 32-39 (1994). However, the source of the glucocorticoid receptor was the thymus of the estrogen-primed immature female rabbit. The affinity of the compounds for the human progesterone hormone receptor was determined by standard procedures similar to those that have been described in Horwitz, et al., Cell, 28: 633-42 (1982) and Mockus, et al., Endocrinology, 110: 1564-71 (1982). The receptor was obtained in cytosol from human T-47D breast cells and [^3 H]-R5020 was used as the radioligand. T47D cells (1 billion/mL) were homogenized in TEDG buffer (10 mM Tris, 1.5 mM EDTA, 1 mM dithiothreitol, 1 mM sodium molybdate, and 10% glycerol) using a Dounce pestle A, and the homogenate was centrifuged at 34,000×g for 1 hour. The supernatant was stored at -80° C. An aliquot of receptor preparation was combined with test compound, 0.4 nM [^3 H]-R5020, and TEDG buffer to a final volume of 150 ,μL and incubated for 4 hours at 4° C. in microtiter plates. At the end of incubation 40 μL 40% polyethylene glycol and 15 μL 1% human gamma globulin was added to the incubate and the contents of each well were harvested onto double thick B filter mats (Wallac LKB) using a TomTec harvester. A film of Meltilux scintillant wax was applied to the dried filter mats and the mats were counted in a scintillation counter to determine inhibition of [^3 H]-R5020 binding. Data are expressed as lC50 values, i.e., the concentration of compound that inhibits radioligand binding by 50%.

[2] = test system: estrogen-primed immature female rabbits; experiment: Anti-Clauberg assay (oral test compound with subcutaneous progesterone); format: in vivo, rabbit; conditions: given orally together with subcutaneous progesterone; McPhail Index
glucocorticoid receptor = conditions: in words; cited from earlier work
rabbits [3] = experiment: McGinty assay (progestational activity, test compound alone); format: in vivo, rabbit; set-up: key: McPhail scoring scale for progestational endometrial response
Description: (§2) Progestational activity and antiprogestational activity were determined in rabbits by means of the McGinty test (test compound alone, procedure of McGinty et al., Endocrinology, 24: 829-832 (1939)) or anti-McGinty test (test compound plus progesterone, procedure of Tamara et al., Jpn. J. Fertil Steril 24: 48-81 (1979)). Results were scored according to McPhail (McPhail, J Physiol., 83: 146 (1934)). These are standard procedures known to those skilled in the art. The results of these assays are shown in Tables 4 (agonist activity) and 5 (antagonist activity). […] Physiol, 83: 146 (1934)).

rabbits [4] = experiment: Anti-McGinty assay (antiprogestational activity, test compound plus progesterone); format: in vivo, rabbit; set-up: key to McPhail Index, Anti-McGinty Assay, Standard / McPhail Index, Anti-McGinty Assay (Antagonist): McPhail scoring scale for progestational endometrial response; conditions: for McPhail Index, Anti-McGinty Assay (Antagonist): plus progesterone
Description: as §2

[5] = molecular target: T3, human progesterone hormone receptor (hPR) (Homo sapiens, UniProt P06401); experiment: Receptor binding (human), inhibition of [^3 H]-R5020 binding; conditions: cytosol from human T-47D cells; 0.4 nM [^3 H]-R5020; 4 hours at 4° C.
T3 construct: The receptor was obtained in cytosol from human T-47D breast cells; endogenous in cells; host or cells: T-47D human breast cells (cytosol)
T3 sequence (P06401 1-933): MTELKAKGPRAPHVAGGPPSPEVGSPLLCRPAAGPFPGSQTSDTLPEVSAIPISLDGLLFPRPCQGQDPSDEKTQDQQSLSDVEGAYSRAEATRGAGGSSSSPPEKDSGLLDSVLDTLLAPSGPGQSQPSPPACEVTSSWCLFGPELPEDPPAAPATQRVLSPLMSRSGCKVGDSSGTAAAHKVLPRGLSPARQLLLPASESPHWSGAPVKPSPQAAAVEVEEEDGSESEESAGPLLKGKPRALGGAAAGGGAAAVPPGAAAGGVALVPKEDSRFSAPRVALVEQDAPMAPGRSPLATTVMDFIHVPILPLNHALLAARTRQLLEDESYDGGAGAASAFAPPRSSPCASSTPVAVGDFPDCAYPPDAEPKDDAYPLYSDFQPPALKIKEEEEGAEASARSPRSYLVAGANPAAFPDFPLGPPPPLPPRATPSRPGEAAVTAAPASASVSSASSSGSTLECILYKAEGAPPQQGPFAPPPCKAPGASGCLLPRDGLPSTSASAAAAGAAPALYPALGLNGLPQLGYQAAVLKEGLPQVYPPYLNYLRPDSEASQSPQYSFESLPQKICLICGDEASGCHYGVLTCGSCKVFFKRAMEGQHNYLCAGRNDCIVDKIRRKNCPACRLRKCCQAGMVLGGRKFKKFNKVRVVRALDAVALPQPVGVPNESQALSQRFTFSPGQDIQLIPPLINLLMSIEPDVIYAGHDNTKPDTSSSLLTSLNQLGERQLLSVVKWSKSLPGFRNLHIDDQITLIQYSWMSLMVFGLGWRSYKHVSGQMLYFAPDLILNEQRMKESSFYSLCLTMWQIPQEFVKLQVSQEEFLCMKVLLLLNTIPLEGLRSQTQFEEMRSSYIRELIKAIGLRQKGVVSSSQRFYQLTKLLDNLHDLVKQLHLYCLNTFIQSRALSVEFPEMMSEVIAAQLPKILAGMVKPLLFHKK
Description: as §1

| SMILES | Ratio PR/GR (progestin receptor (rPR)) | Relative Binding Affinity, rPR, Relative Affinity (Progesterone) (progestin receptor (rPR)) | Relative Binding Affinity, rGR, Relative Affinity (Dexamethasone) [1] | other results |
| --- | --- | --- | --- | --- |
| CSc1ccc([C@H]2C[C@@]3(C)[C@@H](CC[C@]3(CCCO)[N+](=O)[O-])[C@@H]3CCC4=CC(=O)CCC4=C32)cc1 [I 4-MeS H O H --(CH2)3 OH, 17α-(3-Hydroxypropyl)-11β-[4-(methylthio)phenyl]-17β-nitroestra-4,9-dien-3-one] | 20.3 | 61 | 3 |  |
| C[S+]([O-])c1ccc([C@H]2C[C@@]3(C)[C@@H](CC[C@]3(CCCO)[N+](=O)[O-])[C@@H]3CCC4=CC(=O)CCC4=C32)cc1 (stereo partly drawn) [I 4-MeS(O) H O H --(CH2)3 OH, 17α-(3-Hydroxypropyl)-11β-[4-(methylsulfinyl)phenyl]-17β-nitroestra-4,9-dien-3-one] | > 10 | 23 | < 2 |  |
| CC#C[C@]1([N+](=O)[O-])CC[C@H]2[C@@H]3CCC4=CC(=O)CCC4=C3[C@@H](c3ccc(N(C)C)cc3)C[C@@]21C [I 4-Me2 N H O H --CC--CH3, 11β-[4-(N,N-Dimethylamino)phenyl]-17β-nitro-17α-(1-propynyl)estra-4,9-dien-3-one] | 1.5 | 55 | 36 | antiprogestational activity in the anti-Clauberg assay [2]: potent antiprogestin |
| CC(=O)c1ccc(C2CC3(C)C(CCC34CCC(C)=[N+]4[O-])C3CCC4=CC(=O)CCC4=C23)cc1 (stereo not drawn) [II 4-CH3 CO H O H -- CH3, 11β-(4-Acetylphenyl)-3',4'-dihydro-5'-methyl-1'-oxo-spiro[estra-4,9-dien-17β,2'(2'H)-pyrrole]-3-one] |  | 21 |  |  |
| CSc1ccc([C@H]2C[C@@]3(C)[C@@H](CC[C@]3(C=CCO)[N+](=O)[O-])[C@@H]3CCC4=CC(=O)CCC4=C32)cc1 [I 4-MeS H O H CH=CHCH2 OH] |  | 32 |  |  |
| CN(C)c1ccc([C@H]2C[C@@]3(C)[C@@H](CC[C@]3(/C=C/CO)[N+](=O)[O-])[C@@H]3CCC4=CC(=O)CCC4=C32)cc1 [I 4-Me2 N H O H CH=CHCH2 OH, 11β-[4-(N,N-Dimethylamino)phenyl]-17α-[(E)-1-(3-hydroxy)propenyl]-17β-nitroestra-4,9-dien-3-one] | 3.5 | 56 | 16 |  |
| CC#C[C@]1(O)CC[C@H]2[C@@H]3CCC4=CC(=O)CCC4=C3[C@@H](c3ccc(N(C)C)cc3)C[C@@]21C [mifepristone] |  |  |  | glucocorticoid or antiglucocorticoid activity as side-effect (glucocorticoid receptor): significant side-effect |
| CC(=O)[C@H]1CC[C@H]2[C@@H]3CCC4=CC(=O)CC[C@]4(C)[C@H]3CC[C@]12C [Progesterone, reference compound] |  |  |  | McPhail Index, McGinty Assay, Standard (rabbits [3]; standard, dose not given): 2.45 ± 0.14; McPhail Index, Anti-McGinty Assay, Standard (rabbits [4]; standard, dose not given): 2.45 ± 0.14 |
| CN(C)c1ccc([C@H]2C[C@@]3(C)[C@@H](CC[C@@]34CCC=[N+]4[O-])[C@@H]3CCC4=CC(=O)CCC4=C32)cc1 [II 4-Me2 N H O H -- H, 11β-[4-(N,N-Dimethylamino)phenyl]-3',4'-dihydro-1'-oxo-spiro[estra-4,9-dien-17β,2'(2'H)-pyrrole]-3-one] |  |  |  | IC50 [5]: 0.018 µM; McPhail Index, McGinty Assay (Agonist) (rabbits [3]; dose 0.3 micrograms): 0 ± 0; McPhail Index, McGinty Assay (Agonist) (rabbits [3]; dose 3 micrograms): 0 ± 0; McPhail Index, McGinty Assay (Agonist) (rabbits [3]; dose 30 micrograms): 0 ± 0; McPhail Index, Anti-McGinty Assay (Antagonist) (rabbits [4]; dose 0.3 micrograms): 2.0 ± 0.11; McPhail Index, Anti-McGinty Assay (Antagonist) (rabbits [4]; dose 3 micrograms): 1.83 ± 0.2; McPhail Index, Anti-McGinty Assay (Antagonist) (rabbits [4]; dose 30 micrograms): 0.23 ± 0.23 |
